Reference: PMC8305974, “Novel Hybrid Compounds Containing Benzofuroxan and Aminothiazole Scaffolds: Synthesis and Evaluation of Their Anticancer Activity” (International Journal of Molecular Sciences, 2021)
Like-named read-outs stand apart in the source and are kept apart here.

What was measured:
[1] = in vitro; details: human
[2] = system: HuTu 80; test: Cytotoxicity assay (Cytell Cell Imaging, Cell Viability Bio App); details: read-out: Cytotoxic effects (IC50) HuTu 80; cancer cell line HuTu 80; tested at 1–100 μM; mean ± SD, three repeats
[3] = system: PANC-1; test: as above; details: read-out: Cytotoxic effects (IC50) PANC-1; cancer cell line PANC-1; tested at 1–100 μM; mean ± SD, three repeats
[4] = system: M-HeLa; test: as above; details: read-out: Cytotoxic effects (IC50) M-HeLa; cancer cell line M-HeLa; tested at 1–100 μM; mean ± SD, three repeats
[5] = system: M-HeLa; details: for IC50: human
[6] = system: HuTu 80; details: human
[7] = system: PANC-1; details: human
[8] = system: Chang Liver
[9] = system: M-HeLa cells; test: Cell apoptosis analysis by flow cytometry (annexin V-FITC / propidium iodide); format: cell-based, human; details: 24 h
Method: Cell Culture. M-HeLa cells at 1 × 10^6 cells/well in a final volume of 2 mL were seeded into 6-well plates. After 24 h of incubation, various concentrations of Compounds 2f and 3f were added to wells.
Cell Apoptosis Analysis. The cells were harvested at 2000 rpm for 5 min and, then, washed twice with ice-cold PBS, followed by resuspension in binding buffer. Next, the samples were incubated with 5 μL of annexin V-FITC and 5 μL of propidium iodide for 15 min at room temperature in the dark. Finally, the cells were analyzed by flow cytometry (Guava easy Cyte, MERCK, Kenilworth Union County, NJ, USA). The experiments were repeated three times.

[10] = system: M-HeLa cell lines; test: Cell cycle analysis by flow cytometry (propidium iodide); format: cell-based, human; details: 24 h, control 68.1
Method: Cell cycle analysis by quantification of DNA content is a reliable method to investigate which phase cell cycle has been arrested, wherein propidium iodide dye is used which binds in proportion to the amount of DNA present in the cell. […] The results reveal that 3f caused an increase in % of G1 arrest. Compound 3f was on 81.4% and 83.8% at 50 and 100 µM, respectively, which is more than control cells (68.1%) (Figure 9).
The DNA content and cell-cycle distribution after genistein treatment were estimated by flow cytometry. Cell seeding, drug treatment and ethanol fixation were similar to cell proliferation assay. After washing with PBS, genistein and daidzein-treated and -fixed cells were suspended in 150 μL of PBS, then 0.5 mL phosphate-citrate buffer (0.05 M, pH 4.0) was added and the suspension was incubated at room temperature for 5 min to facilitate the extraction of low-molecular-weight DNA. Following centrifugation, the cells were resuspended in 150 μL DNA staining solution (20 μg/mL propidium iodide, 200 μg/mL […], and 0.1% Triton X-100) and incubated in the CO2 incubator (37 °C for 30 min). Cell cycle distribution was determined by fluorescence-activated cell sorting analysis of propidium iodide-stained ethanol-fixed cells using a Guava EasyCyte (Guava easy Cyte, MERCK, Kenilworth Union County, NJ, USA).

[11] = Chang Liver cells (normal liver cell line)

Row | IC50 [1, 11] | SMILES | IC50 [2] | IC50 [3] | IC50 [4] | IC50 [1] | IC50 [5] | IC50 [6] | IC50 [7] | also measured
1 | 72.4 ± 6.5 µM | O=c1[nH]cc(F)c(=O)[nH]1 [5-Fluorouracil, reference compound] | 65.2 ± 5.5 µM | 68.3 ± 5.7 µM | 62 ± 4.9 µM |  |  |  |  | 
2 |  | Nc1nccs1 [Compound 2a] |  |  |  | > 100 µM | 91 ± 8.3 µM | > 100 µM | > 100 µM | 
3 | > 100 µM | Cc1cnc(N)s1 [Compound 2b] | > 100 µM | > 100 µM | 92 ± 7.9 µM |  |  |  |  | 
4 | 95.4 ± 8.7 µM | CCOC(=O)c1csc(N)n1 [Compound 2c] | > 100 µM | > 100 µM | 63.3 ± 5.7 µM |  |  |  |  | 
5 | > 100 µM | Cc1cnc(Nc2ccccc2)s1 [Compound 2e] | > 100 µM | > 100 µM | 92 ± 8.2 µM |  |  |  |  | 
6 | > 100 µM | COc1ccc(Nc2nccs2)cc1 [Compound 2f] | > 100 µM | > 100 µM | 93.8 ± 8.4 µM |  |  |  |  | 
7 |  | O=[N+]([O-])c1cc([N+](=O)[O-])c2no[n+]([O-])c2c1Nc1nccs1 [Compound 3a, 4,6-dinitro-7-(thiazol-2-ylamino)benzo[c][1,2,5]oxadiazole 1-oxide] |  |  |  | > 100 µM | 61 ± 5.4 µM | > 100 µM | > 100 µM | Toxicity in words, normal cells (Chang Liver) [8]: not toxic; Cytotoxicity in words, M-HeLa [5]: moderate cytotoxicity
8 |  | Cc1cnc(Nc2c([N+](=O)[O-])cc([N+](=O)[O-])c3no[n+]([O-])c23)s1 [Compound 3b, 7-(5-methylthiazol-2-ylamino)-4,6-dinitrobenzo[c][1,2,5]oxadiazole 1-oxide] |  |  |  | > 100 µM | 70 ± 6.2 µM | > 100 µM | > 100 µM | 
9 |  | CCOC(=O)c1cnc(Nc2c([N+](=O)[O-])cc([N+](=O)[O-])c3no[n+]([O-])c23)s1 [Compound 3c, 7-(5-(ethoxycarbonyl)thiazol-2-ylamino)-4,6-dinitrobenzo[c][1,2,5]oxadiazole 1-oxide] |  |  |  | 100 ± 9.4 µM | 95.8 ± 8.4 µM | > 100 µM | > 100 µM | 
10 |  | O=[N+]([O-])c1cc([N+](=O)[O-])c2no[n+]([O-])c2c1N(c1ccccc1)c1nccs1 [Compound 3d, 4,6-dinitro-7-(phenyl(thiazol-2-yl)amino)benzo[c][1,2,5]oxadiazole 1-oxide] |  |  |  | 86.1 ± 7.8 µM | 61 ± 5.6 µM | > 100 µM | > 100 µM | Toxicity in words, normal cells (Chang Liver) [8]: not toxic; Cytotoxicity in words, M-HeLa [5]: moderate cytotoxicity
11 |  | Cc1cnc(N(c2ccccc2)c2c([N+](=O)[O-])cc([N+](=O)[O-])c3no[n+]([O-])c23)s1 [Compound 3e, 7-((5-methylthiazol-2-yl)(phenyl)amino)-4,6-dinitrobenzo[c][1,2,5]oxadiazole 1-oxide] |  |  |  | 85.8 ± 7.4 µM | 79 ± 6.3 µM | > 100 µM | > 100 µM | 
12 |  | COc1ccc(N(c2nccs2)c2c([N+](=O)[O-])cc([N+](=O)[O-])c3no[n+]([O-])c23)cc1 [Compound 3f, 7-((4-methoxyphenyl)(thiazol-2-yl)amino)-4,6-dinitrobenzo[c][1,2,5]oxadiazole 1-oxide] |  |  |  | > 100 µM | 56.6 ± 4.7 µM | > 100 µM | > 100 µM | Toxicity in words, normal cells (Chang Liver) [8]: not toxic; Early apoptotic cells (Ea) ([9]; 50 µM): 10.73%; Early apoptotic cells (Ea) ([9]; 100 µM): 17.29%; Cytotoxicity in words, M-HeLa [5]: moderate cytotoxicity; Cells in G1 phase ([10]; 50 µM): 81.4%; Cells in G1 phase ([10]; 100 µM): 83.8%
